The values below come from a melting point compilation (Tetko et al.; mined from patent text by program, amines drawn as free bases though some values may be those of a salt).

For orientation: melting point means the temperature, or range, at which the solid turns liquid.

With `CN(C)CCCN=C1CC(c2ccc(Cl)cc2Cl)Cc2[nH]c3ccc(Cl)cc3c(=O)c21` (configuration not stated), the melting point lay in the range of 168 to 170 °C.
For `O=C(CCc1ccccc1)Nc1cc(C(=O)O)ccn1`, the melting point was 266 to 267 °C.
For `CC(C)(C)c1ccc(C(=O)Cc2ccncc2)cc1`, the melting point lay in the range of 75 to 76 °C.
For `NS(=O)(=O)c1ccsc1CO` the value was 85 to 89 °C; for `CC(C)(C)c1ccc(OCCOc2ccccc2N)c(N)c1`, 148 to 150 °C; for `CC(=O)Oc1cc2c(c(OC(C)=O)c1)C1CCC3(C)C(=O)CCC3C1CC2` (configuration not stated), 179 to 180 °C.
Turning to `NC1=NS(=O)N=C1NCCCN(Cc1ccsc1)c1ccccn1` (configuration not stated), the melting point lay in the range of 140 to 142 °C.
As for `C=CCc1ccc2c(c1)CCC2O` (configuration not stated), the melting point was determined as 54 °C.
For `COc1cc2cc(CO)c(CO)c(-c3ccnc(NN)c3)c2cc1OC` the value was 214 to 220 °C.
For `CCOC(=O)CC[C@H](NC(=O)c1ccc(N)cc1F)C(=O)OCC` the value was 130 to 132 °C; for `COC(=O)C(S)CNC(=O)C(=O)NCC(S)C(=O)OC` (configuration not stated), 150 to 151 °C; for `O=C(O)Cc1cc(C(=O)c2cc(Cl)ccc2Cl)ccc1O`, 149 °C.
For `COc1cc(C(=CC#N)c2ccc(OC)c(OC)c2)ccc1N` the value was 104 to 106 °C; for `FC(F)(F)c1nc(Cl)sc1C(=S)OCc1ccccc1`, 61 to 63 °C; for `NC(=O)c1cc2c(Oc3ccc(Cl)cc3)c[nH]c(=O)c2s1`, over 250 °C.
In the case of `Nc1cc(-n2cccc2)ccc1Nc1cccc(-c2cncnc2)c1`, the melting point was in the range of 190 to 192 °C.
For `CCN1C(=O)C(NC(=O)C(F)(F)F)CCc2c1ccc(Nc1ncc(Cl)c(N[C@H]3[C@@H](C(N)=O)[C@@H]4C=C[C@H]3C4)n1)c2OC` (some centres not stated) the value was 167 to 176 °C.
For `COc1nc(C)nc(NC(=O)NS(=O)(=O)c2sccc2C2OCCO2)n1`, the melting point was in the range of 164 to 166 °C.
For `CSc1ccc(Nc2nc(=O)cc(N)n2-c2ccc(C)cc2)cc1` the value was 231 to 234 °C; for `COc1c(N2CCCC(NC(C)=O)C2)c(F)cc2c(=O)c(C(=O)O)cn(C3CC3)c12` (configuration not stated), 176 to 177 °C; for `CC(C)Cn1cc2c(O)nc(O)nc2n1`, 328 to 330 °C.
Regarding `CCN1c2ncc(C#Cc3ccccc3)cc2C(=O)N(C)c2cccnc21`, the melting point is 228 to 229 °C.
For `N#Cc1ccc(OCc2ccc3ncoc3c2)cc1OC(C(=O)O)c1ccccc1Cl` (racemic) the value was 172 to 178 °C; for `CCC1SC(N(C)C(=O)NC)=NN1C(=O)C(C)(C)C` (configuration not stated), 144 to 146 °C; for `O=C1N(Cc2ncccc2C(F)(F)F)c2ccccc2C12COc1cc3[nH]ncc3cc12` (configuration not stated), 152 to 154 °C.
For `C(=Cc1ccnc2[nH]c3ccccc3c12)c1ccccc1` the value was over 220 °C.
As to `CS(=O)(=O)c1ccc(Oc2cc(OCc3cccc(Cl)n3)c3[nH]c(C(N)=O)cc3c2)cc1`, the melting point is 259 to 260 °C.
The value for `Cc1ccc(C(O)=S)cn1` was 186 to 188 °C; that for `O=C(CCCCl)c1ccc2c(c1)Cc1cc(C(=O)CCCCl)ccc1O2` was 131 to 132 °C; that for `Cn1cc(-c2ccc(O)cc2)c(=O)c(-c2cccc(C(F)(F)F)c2)c1` was 162 to 163 °C.
The value for `C[C@H]1Cc2cccc3sc(=O)n(c23)C1` was 54 to 56 °C.
For `Oc1ccc2c(c1)CCCC(c1ccccc1)=C2c1ccc(OCCCCCCl)cc1` the value was 200 to 202 °C; for `COc1ccc(CC(Cc2ccccc2)C(=O)O)cc1` (configuration not stated), 72 to 76.5 °C.
As for `CCOc1ccc(-c2ccc3c(c2)C=C(C(=O)Nc2ccc(CO)cc2)CCO3)cc1`, the melting point fell in the range of 208 to 210 °C.
Compound `CCCc1nc2c(C)cc(-c3nc4ccccc4n3C)cc2n1Cc1ccc(-c2ccccc2NC(=O)C(F)(F)F)cc1` had a melting point of 115 to 120 °C.
The value for `O=C1C=C(c2ccccc2C(F)(F)F)CO1` was 49 to 50 °C; that for `O=C(c1c[nH]c(=O)[nH]1)c1cccs1` was 339 to 342 °C.
For `CC1(C)OC(=O)Nc2ccc(-c3cccc(Cl)c3)cc21` the value was 158 to 159 °C.
For `Cc1cc2c(/C=C/C(=O)OCc3ccccc3)cccc2[nH]1` the value was 135 to 136 °C.
For `N#CSc1ccc(C=O)cc1`, the melting point fell in the range of 82 to 83 °C.
The value for `COC(=O)c1ccc(Cn2nc(C(C)(C)C)cc2C(C)(C)C)cc1` was 135 to 136 °C.
For `CC(=O)Oc1cc2c(cc1C(C)(C)C)OC(C)(CCOc1ccc(CC3SC(=N)NC3=O)cc1)CC2` (configuration not stated) the value was 175 to 178 °C; for `CCCc1c(O)c(C(C)=O)cc(Cl)c1OCCCOc1ccc2ccc(OCC(=O)OC)cc2c1C(C)=O`, 121 to 124 °C; for `COc1ccc(S(=O)(=O)N2Cc3ccsc3C[C@@H]2C(=O)O)cc1`, 110 °C.
For `CCCc1sc(NC(=O)C2CCCCC2)c(C#N)c1OC` the value was 146 to 147 °C.
On to `CCOC(=O)C(=O)Nc1ccc(NC(=O)C(=O)OCC)cc1`, for which the melting point lay in the range of 214 to 217 °C.
For `Cc1cc(-n2ccnc2)c2cccc(OCc3c(Cl)ccc(S(=O)(=O)N4CC[C@@H](O)C4)c3Cl)c2n1` the value was 166 °C; for `N[C@@H](Cc1c[nH]cn1)C(=O)N(N)C(=O)C(CC(=O)N1CCOCC1)Cc1cccc2ccccc12` (some centres not stated), 115 to 119 °C; for `Cn1cnc2nc(-c3cc(Cl)c(Cl)cc3C(=O)O)nn2c1=S`, 298 to 300 °C.
For `Nc1cc2c(cc1[N+](=O)[O-])[nH]c(=O)c(=O)n2C1CCCCC1` the value was over 260 °C; for `CCCCc1nc(Cc2ccc(-c3ccccc3C(=O)O)cc2)c(CC(=O)O)c(Cc2ccc(-c3ccccc3C(=O)O)cc2)n1`, 160 °C; for `CN1C(=O)C(C(=O)Nc2nccs2)Sc2ccccc21` (configuration not stated), 234 to 235 °C.
The value for `COC(=O)CNC(=O)c1ccc(C(=O)NS(=O)(=O)c2ccc(OC)cc2)cn1` was 150 to 152 °C; that for `COCn1c(-c2nc3c(OC)ccc(N4CCOCC4)c3s2)nc2ccc(Cl)nc21` was 167 to 170 °C.
In the case of `c1ccc(CSc2ccccc2Cn2cncn2)cc1`, the melting point fell in the range of 65 to 68 °C.
The value for `Cc1ccc2c(c1)C(=O)N(C)CC(=O)N2` was 243 to 244 °C; that for `CN(C)C=C(C(=O)C(C)(C)C)n1ccnc1` was 45 to 50 °C.
For `Fc1ccc(-c2nc3ccc(N4CCN(C5CC5)CC4)nn3c2-c2ccnnc2)cc1` the value was 206 to 209 °C; for `Cc1cc(CC#N)cc(Cc2nc3c(F)c(F)cc(F)c3s2)c1`, 110 to 113 °C.
In the case of `CC(C)(C)SCC1Cn2cc(C(=O)NCc3ccc(Cl)cc3)c(=O)c3cc(CN4CCOCC4)cc(c32)O1` (configuration not stated), the melting point was 198 to 201 °C.
The value for `CC1ON=C(c2ccc(F)cc2)C1CN(O)C(N)=O` (configuration not stated) was 149 to 151 °C.
The value for `O=C(O)c1ccc(-c2ccc(Cl)cc2)c(O)c1` was 199 °C.
The value for `NS(=O)(=O)c1ccc(-c2c(-c3ccccc3)noc2COCC(F)(F)C(F)(F)C(F)(F)CO)cc1` was 50 to 51 °C.
As for `NC(=O)c1cnn2c1NCC=C2c1cccc(C(F)(F)F)c1`, the melting point was in the range of 157 to 160 °C.
The value for `CCCOC(=O)C1CCC2C3CCC4CC(O)C(O)CC4(C)C3C(NCCC(C)C)CC12C` (configuration not stated) was 140 to 142 °C; that for `CN(Cc1ccccc1)c1nc2c(cc1C#N)C(=O)CC(C)(C)C2` was 97 to 99 °C.
The value for `COc1ccc(Oc2ccccc2Cl)cc1C=O` was 65 to 66 °C; that for `CCOC(=O)c1c(S(=O)(=O)c2ccc(C)cc2)nc(-c2ccccc2)c([N+](=O)[O-])c1C(=O)OCC` was 115 to 117 °C; that for `O=c1[nH]c2cc(Cl)cc(Cl)c2c(=O)n1Cc1ccc(I)cc1` was 314 to 316 °C.
`CN1C(=O)C(=O)N(Cc2ccccc2)CC1(CCO)c1ccc(Cl)c(Cl)c1` (configuration not stated) showed a melting point of 198 °C.
The value for `Cc1nc2c(c3c1[nH]c1ccc(Cl)cc13)C(=O)CC(C)(C)C2` was 244 to 246 °C.
For `CCCCCCOc1ccc(-c2ncc(-c3ccc(OCc4ccccc4)c(F)c3F)cn2)cn1` the value was 115 °C.
The value for `Cc1cnc2[nH]cc(/C=C3\N=C(N4CCCCC4)NC3=O)c2c1` was 320 to 321 °C.
In turn, `Cn1c(C(F)(F)F)cc(=O)n(-c2c(F)cc(Cl)c3ccoc23)c1=O` came in with a melting point of 127 to 128 °C.
The value for `O=C1C(=O)c2ccc(-c3ccccc3)cc2C2=C1SCC1(CCN(CC(O)COc3ccc(F)cc3)CC1)O2` (configuration not stated) was 173 to 175 °C; that for `COc1cc(OC)nc(NC(=O)NS(=O)(=O)c2c(C)nsc2OCC(Cl)(Cl)Cl)n1` was 176 to 180 °C.
The value for `CC(C)(C)OC(=O)CN(C(=O)CN1C(=O)c2ccccc2C1=O)c1ccccc1-c1ccccc1` was 145 °C; that for `CCC(C)(C)NC(Nc1cc(OC)cc(OC)c1)=C(C#N)S(=O)(=O)c1ccc(Cl)cc1` was 189 to 190 °C; that for `CCSNc1c(C#N)c(C)nn1-c1c(Cl)cc(C(F)(F)F)cc1Cl` was 160 to 161 °C.
The value for `O=[N+]([O-])CC(SC(=S)N1CCCCC1)c1ccccc1` (configuration not stated) was 86 to 90.5 °C; that for `CCCCCC(Oc1ccc(C2=CCCCC2)cc1)C(=O)O` (configuration not stated) was 78 to 80 °C.
As to `CCCc1c(OCCCCCCc2ccc(C(C)(C)C)c(OC)c2OC)ccc(C(=O)OCc2ccccc2)c1O`, the melting point lay in the range of 106 to 108 °C.
The compound `Cc1cc2nc(S(=O)(=O)CC(F)(F)F)[nH]c2cc1F` displayed a melting point of 164 to 166 °C.
For `CC1(C)CCC(C)(C)c2cc(CCCC(=O)O)ccc21` the value was 99 °C; for `CCC(=Nc1ccc2c(c1)C(=O)c1ccc(N=C(CC)N3CCOCC3)cc1C2=O)N1CCOCC1`, 220 to 223 °C.
For `CCOC(=O)N1CCC2=C(C1)SCC2(NC(=O)CN)C(=O)c1ccccc1Cl` (configuration not stated) the value was 95 to 97 °C; for `COC(=O)CCc1cc(C)c(OP(Oc2c(C)cc(CCC(=O)OC)cc2C(C)(C)C)Oc2c(C)cc(CCC(=O)OC)cc2C(C)(C)C)c(C(C)(C)C)c1`, 113 to 114 °C.
